The values that follow come from patent US5087640A, “Novel cyanoguanidine derivatives” (Kanebo, Ltd., priority 1989, dated 1992).

Where only a bound is given, the exact number is not on record here.

For data set [1], the system named is taenia caecum smooth muscle. The data set can be described thus: Smooth muscle relaxation (isolated guinea pig taenia caecum, organ bath). Format: cell-based, guinia pigs. As to conditions: Cavia porcellus; cumulative addition; papaverine (10^-4 M) relaxation taken as 100%; MOPS-PSS pH 7.4, 37°±1° C.; read-out: ED50 (dose achieving 50% relaxation). The method, then:
Male guinia pigs weighing 300-600 g were stunned by blow on the head. Taeniae were isolated from the caecum and cut into length of about 1 cm to prepare a plurality of test specimens. These specimens were suspended in an organ bath filled with MOPS-PSS containing 129.7 mM of NaC1, 5.9 mM of KC1, 2.54 mM of CaC12, 1.19 mM of MgC12, 10.0 mM of 3-(N-morpholino)propanesulfonic acid (MOPS) and 11.1 mM of glucose, pH 7.4. The bathing solution was continuously bubbled with 100% O2 gas and maintained at 37°±1° C. Resting tension of each specimen was adjusted to 1 g and the spontaneous response was recorded isotonically. The specimens were allowed to stabilize before starting the test. Test compound was cumulatively added to the bathing solution. A relaxation induced with papaverine (10^-4 M) was taken as 100% relaxation. The relaxation effect of each test compound was evaluated in terms of a dose achieving 50% relaxation (ED50) determined by the linear regression analysis.

The next data set can be described thus: in vivo. The settings on record: rat, po, fasted male rats, deaths for 7 days, Weil's method. The method, then:
Male rats weighing 70-210 g (3-5 rats/group) were fasted overnight and administered orally with the test compound suspended in 5% gum arabic solution. LD50 was calculated from the number of death for 7 days using the Weil's method.

A short description of data set [2]: Hypotensive activity in anesthetized dogs (mean blood pressure). Type of data set: in vivo, Mongrel dogs. The settings on record: 30 μg/kg, i.v.; pentobarbital-anesthetized dogs. The method, then:
Mongrel dogs of both sexes, weighing 11-22 kg, were anesthetized with sodium pentobarbital (30 mg/kg, i.v.). Mean blood pressure was measured with a carrier amplifier (Nihon Koden, AP-621G) via a pressure transducer (Nihon Koden, TP-200T) connected to the cannulated left femoral artery. Each test compound was dissolved in 0.9% saline containing 50% (v/v) ethanol and injected into the femoral vein in volumes of 0.1 ml/kg. The hypotensive effects of test compounds were evaluated in terms of the maximum decrease in the mean blood pressure (Δ mmHg) at a dose of 30 μg/kg.

The test system of the next data set is K^+ channel. The data set can be described thus: K^+ channel opening activity (^86 Rb^+ efflux from taenia caecum). Format: cell-based, guinia pigs. As to conditions: n = 5; efflux just before addition taken as 100%; 37°±1° C. Here is the method: In order to ascertain that the smooth muscle relaxation activity is proportional to the K^+ channel opening activity, the compound of Example B-2 was tested for the K^+ channel opening activity in comparison with pinacidil.
^86 Rb^+ efflux was selected as the indication of K^+ channel opening effect because the K^+ channels were considered to be selective also for Rb^+. In a similar manner to the test 1, specimens of taenia caecum were suspended in a test tube filled with MOPS-PSS. The bathing solution was continuously bubbled with 100% O2 gas and maintained at 37°±1° C. After an equilibration period for about 45 minutes, the specimens were loaded with ^86 Rb^+. The efflux from the specimens was measured using a scintillation counter at every 2 minutes interval. The efflux data were expressed in terms of the rate coefficient (the ^86 Rb^+ efflux just before the test compounds were added were taken as 100%). The effective dose (ED15) Producing 15% increase of the rate coefficient by the test compounds were calculated from the linear regression analysis.

In the case of `CCC(C)(C)NC(=Nc1ccccc1)NC#N` [Compd. A, N-cyano-N'-t-pentyl-N"-phenylguanidine, reference compound], in data set [1], the EC50 was 1800 nM.
The same measure, in the same setting: the figure for `CC(C)(C)NC(=Nc1c(Cl)cccc1Cl)NC#N` [Compd. B, N-t-butyl-N'-cyano-N"-(2,6-dichlorophenyl)guanidine, reference compound] is above 100000 nM; for `CC(NC(=C[N+](=O)[O-])Nc1ccccc1)C(C)(C)C` (centres unmarked) [Compd. C, 2-nitro-1-anilino-1-(1,2,2-trimethylpropyl)aminoethene, reference compound] it is 2700 nM.
Compound `CC(C)(C)NC(=Nc1cc(Cl)cc(Cl)c1)NC#N` [Ex. B-1, N-t-butyl-N'-cyano-N"-(3,5-dichlorophenyl)-guanidine] registered an LD50 at 168 h in “in vivo” above 2000 mg/kg. Further, in data set [1], the EC50 was determined as 87 nM.
`CCC(C)(C)N=C(NC#N)Nc1cc(Cl)cc(Cl)c1` [Ex. B-2, N-cyano-N'-(3,5-dichlorophenyl)-N"-t-pentylguanidine] displayed an LD50 at 168 h in the data set “in vivo” above 2000 mg/kg. In addition, the “maximum decrease in the mean blood pressure, Δ mm Hg ± S.E.” value (from here on “maximum decrease … Δ mm Hg ± S.E.”) in data set [2] is -19.1 ± 4.1 mm Hg. Moreover, in the data set on K^+ channel, the “ED15 (dose producing 15% increase of the ^86 Rb^+ efflux rate coefficient)” value was 270 nM. In data set [1], the EC50 turned out to be 26 nM.
For the compound `CCCC(C)(C)N=C(NC#N)Nc1cc(Cl)cc(Cl)c1` [Ex. B-3, N-cyano-N'-(3,5-dichlorophenyl)-N"-(1,1-dimethylbutyl)guanidine], the “maximum decrease … Δ mm Hg ± S.E.” value in data set [2] is listed as -22.9 ± 3.2 mm Hg. The EC50 in data set [1] was found to be 35 nM.
Turning to `CC(C)C(C)(C)N=C(NC#N)Nc1cc(Cl)cc(Cl)c1` [Ex. B-4, N-cyano-N'-(3,5-dichlorophenyl)-N"-(1,1,2-trimethylpropyl)guanidine], the EC50 in data set [1] amounted to 58 nM.
Regarding `CCC(C)(CC)N=C(NC#N)Nc1cc(Cl)cc(Cl)c1` [Ex. B-5, N-cyano-N'-(3,5-dichlorophenyl)-N"-(1-ethyl-1-methylpropyl)guanidine], the LD50 at 168 h in the data set “in vivo” is above 2000 mg/kg. Further, in data set [2], the “maximum decrease … Δ mm Hg ± S.E.” value is recorded as -26.1 ± 1.8 mm Hg. In addition, in data set [1], the EC50 was determined as 81 nM.
`CC(N=C(NC#N)Nc1cc(Cl)cc(Cl)c1)C(C)(C)C` (centres unmarked) [Ex. B-6, N-cyano-N'-(3,5-dichlorophenyl)-N"-(1,2,2-trimethylpropyl)guanidine]: the EC50 in data set [1] is 180 nM.
`CCC(CC)(CC)N=C(NC#N)Nc1cc(Cl)cc(Cl)c1` [Ex. B-7, N-cyano-N'-(3,5-dichlorophenyl)-N"-(1,1-diethylpropyl)guanidine]: in data set [1], the EC50 worked out at 180 nM.
On the same count and under the same terms, the figure for `CC(C)(C)NC(=Nc1cc(F)cc(F)c1)NC#N` [Ex. B-8, N-t-butyl-N'-cyano-N"-(3,5-difluorophenyl)guanidine] is 180 nM; for `CC(C)(C)NC(=Nc1cc(Br)cc(Br)c1)NC#N` [Ex. B-9, N-t-butyl-N'-cyano-N"-(3,5-dibromophenyl)guanidine] it is 21 nM; for `CCC(C)(C)N=C(NC#N)Nc1cc(Br)cc(Br)c1` [Ex. B-10, N-cyano-N'-(3,5-dibromophenyl)-N"-t-pentylguanidine] it is 19 nM.
Consider `CC(C)(C)NC(=NC#N)Nc1cc(F)cc(Cl)c1` [Ex. B-11, N-t-butyl-N'-(3-chloro-5-fluorophenyl)-N"-cyanoguanidine], for which, in data set [2], the “maximum decrease … Δ mm Hg ± S.E.” value is reported as -19.2 ± 4.4 mm Hg. Further, the EC50 in data set [1] amounted to 66 nM.
With `CCC(C)(C)N=C(NC#N)Nc1cc(F)cc(Cl)c1` [Ex. B-12, N-(3-chloro-5-fluorophenyl)-N'-cyano-N"-t-pentylguanidine], the EC50 in data set [1] turned out to be 54 nM.
For `CCC(C)(C)N=C(NC#N)Nc1cc(F)cc(Br)c1` [Ex. B-13, N-(3-bromo-5-fluorophenyl)-N'-cyano-N"-t-pentylguanidine], the LD50 at 168 h in the data set “in vivo” is above 2000 mg/kg. Besides, the “maximum decrease … Δ mm Hg ± S.E.” value in data set [2] was -33.4 ± 0.9 mm Hg. Moreover, the EC50 in data set [1] came out at 25 nM.
Take `CC(N=C(NC#N)Nc1ccncc1)C(C)(C)C.O` (centres unmarked) [Pinacidil, N-cyano-N'-(4-pyridyl)-N"-(1,2,2-trimethylpropyl)guanidine monohydrate, reference compound]: the “maximum decrease … Δ mm Hg ± S.E.” value in data set [2] is recorded as -11.3 ± 1.1 mm Hg. For the same compound, in the data set with K^+ channel, the “ED15 (dose producing 15% increase of the ^86 Rb^+ efflux rate coefficient)” value turned out to be 24000 nM. For the same compound, in data set [1], the EC50 was 2000 nM.

In general, LD50 refers to the dose expected to kill half of the subjects tested.
